The text below walks through data of ChEMBL document CHEMBL1201862, “PubChem BioAssay data set” (2004).

The structures appear in SMILES notation.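 Where inhibition never reached the appropriate level, the endpoint shown equals the highest concentration tested. Otherwise, values were interpolated linearly from a five-concentration, 48-hour dose response in 96-well plates. GI50 is the concentration that inhibits growth by half.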 Activity calls are given as the source filed them. Rule as the data show it: active = GI50 up to about 1.1 µM and inactive = higher.

Among the test systems are DU-145; HCT-15; HL-60; HOP-62; K562; MCF7; Malme-3M; NCI-H23; NCI-H460; NCI-H522; OVCAR-8; RPMI-8226; SF-268; SF-295; SK-MEL-2; SNB-19; T47D; UACC-62.
What all share (test): DTP human tumour cell line panel, 48 h

Regarding `Oc1ccccc1C(c1cc2c(cc1O)OCO2)N1CCOCC1` (stereo unspecified), the GI50 (usually the concentration that inhibits growth by half) is 37.4 µM (inactive) in the assay with DU-145; 16.4 µM with HCT-15; 2.24 µM (inactive) in the assay with HL-60; 38.8 µM (inactive) with HOP-62; 5.25 µM (inactive) in the assay with K562; 19.4 µM (inactive) with MCF7. Moreover, the GI50 in the assay with Malme-3M was 17.8 µM (inactive); in the assay on NCI-H23, 23.6 µM (inactive); in the assay on NCI-H460, 27.4 µM (inactive); in the assay with NCI-H522, 10.2 µM (inactive); in the assay on OVCAR-8, 9.29 µM (inactive); in the assay on RPMI-8226, 12.8 µM (inactive). The GI50 was 18.5 µM (inactive) in the assay on SF-268; 20.6 µM (inactive) in the assay with SF-295; 17.8 µM (inactive) in the assay with SK-MEL-2; 19.1 µM (inactive) in the assay on SNB-19; 16.7 µM (inactive) in the assay on T47D; 17 µM (inactive) in the assay on UACC-62.

With `O=C1NC2c3c(I)sc(I)c3C(=O)C2O1` (stereo unspecified), the GI50 in the assay with DU-145 was 14 µM (inactive); in the assay on HCT-15, 2.08 µM; in the assay with HL-60 it was 1.09 µM (active); in the assay with HOP-62 it was 14.1 µM (inactive); with K562, 4.65 µM (inactive); with MCF7, 4.58 µM (inactive). Besides, the GI50 in the assay on Malme-3M is 2.23 µM (inactive); in the assay with NCI-H23, 5.27 µM (inactive); with NCI-H460, 13.9 µM (inactive); in the assay on NCI-H522, 1.56 µM (inactive); in the assay on OVCAR-8, 2.84 µM (inactive); in the assay with RPMI-8226, 8.15 µM (inactive). In addition, the GI50 in the assay on SF-268 is 6.76 µM (inactive); in the assay on SF-295, 15.8 µM (inactive); in the assay on SK-MEL-2, 10.4 µM (inactive); in the assay with SNB-19 it was 13.2 µM (inactive); with T47D it was 15.9 µM (inactive); with UACC-62, 8.99 µM (inactive).

As for `O=C(O)C12C3CCC(O3)C1(C(=O)O)C1CCC2O1` (stereo unspecified), the GI50 in the assay with DU-145 was > 100 µM (inactive); in the assay on HCT-15, above 100 µM; in the assay on HL-60, > 100 µM (inactive); with HOP-62, > 100 µM (inactive); in the assay with K562, > 100 µM (inactive); in the assay with MCF7 it was > 100 µM (inactive). The GI50 in the assay on Malme-3M, in the assay on NCI-H23, in the assay on NCI-H460, in the assay with NCI-H522, in the assay on OVCAR-8 and in the assay on RPMI-8226 was > 100 µM (inactive) throughout. Besides, the GI50 with SF-268, with SF-295, with SK-MEL-2, in the assay on SNB-19, with T47D and in the assay with UACC-62 was > 100 µM (inactive) each time.

Regarding `CCOC(=O)/C(C(N)=O)=C(/O)c1cnccn1`, the GI50 was > 100 µM (inactive) in the assay on DU-145; above 100 µM in the assay with HCT-15; > 100 µM (inactive) in the assay with HL-60; > 100 µM (inactive) in the assay with K562; > 100 µM (inactive) in the assay on MCF7; > 100 µM (inactive) in the assay with Malme-3M. Besides, the GI50 in the assay on NCI-H23, in the assay on NCI-H460, in the assay on NCI-H522, with OVCAR-8, in the assay on RPMI-8226 and in the assay with SF-268 was > 100 µM (inactive) throughout. Also, the GI50 in the assay on SF-295, with SK-MEL-2, in the assay on SNB-19, in the assay on T47D and in the assay on UACC-62 was > 100 µM (inactive) in each case.

Consider `O=C(N/N=C1\CCc2ccccc2C1)N/N=C1\CCc2ccccc2C1`, for which the GI50 is > 10 µM (inactive) with DU-145; above 10 µM in the assay with HCT-15; > 10 µM (inactive) with HL-60; > 10 µM (inactive) with HOP-62; > 10 µM (inactive) with K562; > 10 µM (inactive) in the assay with MCF7. Further, the GI50 in the assay on Malme-3M, with NCI-H23, with NCI-H460, in the assay with NCI-H522, in the assay on OVCAR-8 and in the assay on RPMI-8226 was > 10 µM (inactive) in each case. Besides, the GI50 in the assay on SF-268, in the assay on SF-295, in the assay with SK-MEL-2, with SNB-19 and in the assay on T47D was > 10 µM (inactive) throughout.

On to `COC(=O)/C=C\C(C#N)(C#N)/N=C/c1ccc(OC)cc1`, for which the GI50 in the assay on DU-145 was 7.01 µM (inactive); with HCT-15, 3.85 µM; in the assay on HL-60, 1.45 µM (inactive); with HOP-62, 17.7 µM (inactive); with K562 it was 3.41 µM (inactive); in the assay with MCF7 it was 2.73 µM (inactive). Besides, the GI50 in the assay on Malme-3M is 1.73 µM (inactive); in the assay with NCI-H23, 8.95 µM (inactive); in the assay on NCI-H460, 19.5 µM (inactive); in the assay with NCI-H522 it was 0.615 µM (active); in the assay on OVCAR-8, 2.89 µM (inactive); in the assay with RPMI-8226, 0.48 µM (active). Also, the GI50 is 4.94 µM (inactive) in the assay with SF-268; 25.1 µM (inactive) with SF-295; 18.3 µM (inactive) with SK-MEL-2; > 44.7 µM (inactive) in the assay with SNB-19; 1.54 µM (inactive) with T47D; 15.9 µM (inactive) with UACC-62.

Regarding `COc1cc(O)c2c(c1)OCC1(Cc3cc(OC)c(OC)cc31)C2=O` (stereo unspecified), the GI50 with DU-145 was > 100 µM (inactive); in the assay with HCT-15, above 100 µM; with HL-60, > 100 µM (inactive); with HOP-62, > 100 µM (inactive); in the assay on K562, 36.9 µM (inactive); with MCF7, 31.8 µM (inactive). Further, the GI50 was 87.7 µM (inactive) in the assay with Malme-3M; 72.9 µM (inactive) in the assay on NCI-H23; > 100 µM (inactive) in the assay with NCI-H460; 84.9 µM (inactive) with NCI-H522; > 100 µM (inactive) in the assay with OVCAR-8; 37.9 µM (inactive) in the assay on RPMI-8226. In addition, the GI50 in the assay with SF-268 is > 100 µM (inactive); with SF-295, 30.5 µM (inactive); in the assay with SK-MEL-2 it was > 100 µM (inactive); in the assay with SNB-19 it was > 100 µM (inactive); in the assay with T47D, 11.9 µM (inactive); with UACC-62 it was 63.2 µM (inactive).

Take `O=C(CC(=O)N(C(=O)c1ccccc1)c1ccc(Cl)cc1)N/N=C\c1ccccc1O`: the GI50 is > 100 µM (inactive) in the assay on DU-145; 53.1 µM with HCT-15; > 100 µM (inactive) in the assay with HL-60; 31.8 µM (inactive) with HOP-62; > 100 µM (inactive) in the assay with K562; 60.7 µM (inactive) in the assay with MCF7. Moreover, the GI50 in the assay on Malme-3M is > 100 µM (inactive); with NCI-H23, 43.4 µM (inactive); in the assay on NCI-H460, 96.2 µM (inactive); with NCI-H522 it was > 100 µM (inactive); with OVCAR-8, 35.2 µM (inactive); in the assay on RPMI-8226 it was > 100 µM (inactive). For the same compound, the GI50 in the assay with SF-268 is 24.8 µM (inactive); in the assay on SF-295 it was 25.9 µM (inactive); in the assay with SK-MEL-2, 45.1 µM (inactive); in the assay on SNB-19 it was 30.3 µM (inactive); with T47D it was 49.7 µM (inactive).

Take `COc1cc(CCCOC(=O)/C=C/c2ccc(O)c(O)c2)cc(O)c1O`: the GI50 with DU-145 is > 100 µM (inactive); in the assay on HCT-15, 91.8 µM; in the assay on HL-60, 25.5 µM (inactive); with HOP-62 it was > 100 µM (inactive); with K562 it was 33.2 µM (inactive); in the assay with MCF7 it was 24.8 µM (inactive). The GI50 in the assay on Malme-3M is 74 µM (inactive); in the assay on NCI-H23, 56.4 µM (inactive); in the assay with NCI-H460 it was 49.8 µM (inactive); in the assay on NCI-H522 it was 15 µM (inactive); with OVCAR-8, 70.8 µM (inactive); in the assay with RPMI-8226, 27.4 µM (inactive). The GI50 in the assay with SF-268 was 25.2 µM (inactive); in the assay with SF-295 it was 35.1 µM (inactive); in the assay with SK-MEL-2 it was 83.2 µM (inactive); in the assay on SNB-19 it was > 100 µM (inactive); in the assay with T47D, 27.9 µM (inactive); with UACC-62, 27.9 µM (inactive).

With `NC(=O)CC(N)C(N)=O` (stereo unspecified), the GI50 in the assay with DU-145 was > 100 µM (inactive); in the assay on HCT-15 it was above 100 µM; with HL-60, > 100 µM (inactive); in the assay on HOP-62 it was > 100 µM (inactive); with K562, > 100 µM (inactive); in the assay on MCF7, > 100 µM (inactive). Moreover, the GI50 in the assay on Malme-3M, in the assay with NCI-H23, in the assay with NCI-H460, in the assay on NCI-H522, in the assay with OVCAR-8 and in the assay with RPMI-8226 was > 100 µM (inactive) throughout. The GI50 in the assay with SF-295, with SK-MEL-2, in the assay on SNB-19, in the assay on T47D and with UACC-62 was > 100 µM (inactive) throughout.

`OCCN1CN(c2nc(N3CN(CCO)C3)nc(N3CN(CCO)C3)n2)C1`: the GI50 in the assay on DU-145 was 23.6 µM (inactive); in the assay on HCT-15, 22.3 µM; in the assay with HL-60 it was 16 µM (inactive); in the assay on HOP-62, 19.3 µM (inactive); in the assay with K562 it was 25.4 µM (inactive); in the assay on MCF7 it was 21.3 µM (inactive). Besides, the GI50 was 21.5 µM (inactive) with Malme-3M; 22.2 µM (inactive) in the assay on NCI-H23; 19.5 µM (inactive) in the assay on NCI-H460; 13.4 µM (inactive) in the assay with NCI-H522; 45.6 µM (inactive) in the assay with OVCAR-8; 27.6 µM (inactive) in the assay with RPMI-8226. The GI50 in the assay with SF-268 is 22.6 µM (inactive); in the assay with SK-MEL-2, 18.7 µM (inactive); in the assay on SNB-19, 23 µM (inactive); with T47D, 25.8 µM (inactive); in the assay with UACC-62, 14.5 µM (inactive).

On to `COc1cc2c(cc1OC)C(CCN)=NCC2`, for which the GI50 in the assay on DU-145 was 17.9 µM (inactive); with HCT-15, 19.6 µM; in the assay on HL-60, 0.839 µM (active); in the assay with HOP-62, 21.1 µM (inactive); in the assay on K562 it was 11.2 µM (inactive); in the assay on MCF7, 18.2 µM (inactive). Moreover, the GI50 with Malme-3M was 18.8 µM (inactive); with NCI-H23, 13.1 µM (inactive); in the assay with NCI-H460, > 59.2 µM (inactive); with NCI-H522 it was 3.82 µM (inactive); in the assay on OVCAR-8, 18.2 µM (inactive); in the assay on RPMI-8226, 5.33 µM (inactive). For the same compound, the GI50 with SF-268 was 19.5 µM (inactive); with SF-295, > 100 µM (inactive); in the assay on SK-MEL-2 it was 17.4 µM (inactive); with SNB-19, 41.4 µM (inactive); in the assay with T47D, 8.32 µM (inactive); in the assay on UACC-62 it was 18.2 µM (inactive).
